# Measured values published in publication PMC5100903, “Tissue Kallikrein Inhibitors Based on the Sunflower Trypsin Inhibitor Scaffold – A Potential Therapeutic Intervention for Skin Diseases” (PLoS ONE, 2016).
# Like-named read-outs stand apart in the source and are kept apart here. Positions of bridges follow the written chain, without caps; N, C: chain ends. Residues, ends and D or L forms follow the SMILES beside them.
# What was measured:
# KLK5 [1] = target: T1, KLK5 (Homo sapiens, UniProt Q9Y337); test: biochemical
# T1 construct: purchased Novoprotein
# T1 sequence (Q9Y337 23-293): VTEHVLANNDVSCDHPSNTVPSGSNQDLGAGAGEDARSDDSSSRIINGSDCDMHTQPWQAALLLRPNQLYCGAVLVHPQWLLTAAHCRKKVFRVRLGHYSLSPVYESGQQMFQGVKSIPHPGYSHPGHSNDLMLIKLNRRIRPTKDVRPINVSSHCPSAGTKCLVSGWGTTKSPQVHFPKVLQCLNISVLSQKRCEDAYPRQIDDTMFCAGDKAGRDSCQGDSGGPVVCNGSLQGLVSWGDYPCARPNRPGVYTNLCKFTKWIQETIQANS
# Protocol: (§1) All assays were performed on 96-well microplates and the change in relative fluorescence unit (RFU) was measured by fluorescence spectrometer (BMG FLUOstar OPTIMA). The excitation/emission wavelength was 360/460 nm for the substrate Boc-VPR-AMC (Bachem AG, Hauptstrasse, Switzerland) and MeOSuc-AAPV-AMC (Bachem AG, Hauptstrasse, Switzerland) and 485/520 nm for BODIPY_FL casein (Invitrogen, Carlsbad, US). Stock solution of Boc-VPR-AMC was prepared by dissolving the solid in dimethyl sulfoxide to 100 mM and 10 mM for MeOSuc-AAPV. For BODIPY_FL casein, it was reconstituted to 1 mg/mL in 1xPBS. […] The % of inhibition was calculated by the following equation: % of Inhibition=(1−(Sample RFU − Min RFU)/(Max RFU − Min RFU)) X100
# (§2) Each inhibition curves were done in triplicates with a minimum of five concentration points fitted. Fitting of each curve was done using SigmaPlot with the Four Parameter Logistic Function and the IC50 calculated. […] All tested compounds were reconstituted to stock solution in water.
# The diluent for all the tested compounds, protein and substrate was 1xPBS. Serially diluted ligands were mixed with diluted recombinant KLK5 (10 nM f/c). The ligand-protein mixtures were incubated on ice for one hour and 19.5 μL was pipetted into a well of a 96-well microplate in triplicates. To start the reaction, 100 μL of the diluted (41.6 μM f/c) Boc-VPR-AMC substrate solution (contained 0.05% v/v Brij35) was added. The plate was incubated at 37°C and the RFU reading was taken 15 minutes after.
# There are two previously reported Km values for KLK5 and its substrate Boc-VPR-AMC which allowed the IC50 to Ki conversion. Ki values were calculated according to the Cheng-Prusoff equation Ki= IC50/1+[S]/Km for single site competitive binding.
# KLK7 = target: T2, KLK7 (Homo sapiens, UniProt P49862); test: biochemical
# T2 construct: purchased R&D
# T2 sequence (P49862 30-253): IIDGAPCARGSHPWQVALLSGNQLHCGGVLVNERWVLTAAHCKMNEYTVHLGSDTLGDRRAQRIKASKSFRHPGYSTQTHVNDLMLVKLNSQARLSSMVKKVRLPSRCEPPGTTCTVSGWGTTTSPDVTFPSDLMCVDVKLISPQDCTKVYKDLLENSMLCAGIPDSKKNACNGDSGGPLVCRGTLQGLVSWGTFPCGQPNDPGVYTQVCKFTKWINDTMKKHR
# Protocol: as §1, §2
# Recombinant KLK7, KLK8 and KLK14 (>95% purity by SDS-PAGE, endotoxin <0.1 ng/μg, R&D, Minneapolis, U.S.) stocks were diluted with 1xPBS to a concentration of 120 nM. KLK7 and KLK14 were activated by addition of 1 mM f/c CaCl2 (Sigma, Dorset, U.K.), 0.05% v/v Brij35 (Sigma, Dorset, U.K.), 20 nM f/c thermolysin (Sigma, Dorset, U.K.) and incubated at 37°C for 1 hour. The reaction was stopped by addition of ethylenediaminetetraacetic acid (EDTA, 50 mM f/c). KLK8 was activated by addition of 11 nM f/c lysyl endopeptidase (Santa Cruz Biotechnology, Dallas, U.S.) and incubation at 37°C for 0.5 hour. […] The RFU value reached by the thermolysin control was used as the minimum RFU for calculating the % of inhibition for KLK7.
# The diluent for all the tested compounds, protein and substrate (except KLK7, which was done with 10 mM Tris pH 7.8) was 1xPBS pH 8.0–8.9. The serially diluted ligands were mixed with diluted bovine trypsin (Sigma, Dorset, U.K.) or activated KLK14, or KLK5, or activated KLK8 or matriptase (catalytic domain only, >90% purity by SDS-PAGE, endotoxin <0.1 ng/μg, R&D, Minneapolis, U.S.) or activated KLK7 or human neutrophil elastase (purified from human plasma, >95% purity by SDS-PAGE, Abcam, Cambridge, U.K.) or porcine pancreatic elastase 1 (Sigma, Dorset, U.K.) or human plasma kallikrein or human plasma plasmin (purified from human plasma, ≥95% purity by SDS-PAGE, BioVision, Milpitas, U.S.). 20μL of the ligand-protein mixture was pipetted to a well of a 96-well microplate in triplicates. The reaction was started by addition of 90–100 μL of the diluted substrate solution (contained 0.05% v/v Brij35) and the plate incubated at 25°C but 37°C for KLK7. RFU reading for each well was taken 6 minutes (trypsin) or 15 minutes (KLK14, KLK5, KLK8, matriptase, human neutrophil elastase, porcine pancreatic elastase 1, plasma kallikrein and plasmin) or 20 hours (KLK7) after substrate addition.
# KLK5 [2] = target: T1, KLK5; test: biochemical; assay type: binding
# Protocol: ITC experiments were performed on a MicroCal iTC200 calorimeter (GE Healthcare, Uppsala, Sweden) at 298.15 K with a stirring speed of 750 revolutions per minute. Concentrated (450 μM) ligand solutions were injected into protein (KLK5) solution (20 μM, 280 μL sample volume) in the sample cell. Injection volumes were 2 μL for I10H and Analogue 1 and 1 μL for Analogue 2 and 6 with a spacing of 120 seconds between each injection. Concentrations of ligands were determined by dried weight and they were reconstituted to 10 mM stock in H2O. Concentration of KLK5 was determined by UV280 calculated with an extinction coefficient of 38680 and molecular weight of 32KDa (including weight of glycosylation). The protein solution were buffer exchanged using spin column to 1xPBS (137 mM NaCl, 2.7 mM KCl, 4.3 mM Na2HPO4, 1.47 mM KH2PO4 pH 8.0) or 20 mM MES buffer (with 150 mM NaCl, pH 5.5). Ligand stocks were diluted in those buffers (4.5 μL + 95.5 μL buffer), and then equal v/v % of H2O was added to the protein solution after buffer exchange to ensure matching buffer contents. Heat of dilution was undetectable in control experiments. Data were analyzed using OriginLab version 7.0.
# KLK5 [3] = target: T1, KLK5; test: KLK5 inhibition, fluorogenic Boc-VPR-AMC assay (S1 Table conditions); assay type: biochemical; conditions: read-out: BOC-VPR-AMC IC50 (N = 3); KLK5 10 nM, Boc-VPR-AMC 41.6 μM, 1xPBS pH 8.0, 15 min on ice preincubation, read at 15 min, 25°C
# Protocol: as §1, with “The excitation/emission wavelength was 360/460 nm for the substrate Boc-VPR-AMC (Bachem AG, Hauptstrasse, Switzerland) and MeOSuc-AAPV-AMC (Bachem AG, Hauptstrasse, Switzerland) and 485/520 nm for BODIPY_FL casein (Invitrogen, Carlsbad, US).” left out
# as §2
# The diluent for all the tested compounds, protein and substrate was 1xPBS pH 8.0. Zinc sulfate and p-aminobenzamidine were purchased from Sigma (Dorset, U.K.). […] The ligand-protein mixtures were incubated on ice for 15 minutes and 20 μL was transferred to a well of a 96-well microplate (ThermoScientific, Waltham, U.S.) in triplicate. […] Change in RFU was measured 15 minutes after substrate addition at 25°C.
# [4] = amide bond, 42-membered ring, MESNa (NCL via N-S acyl transfer), then NH4HCO3 oxidation, 0.1 M Na phosphate pH 5.8, 55.0 °C, 2 steps
compound,measurement,setting,value
CC[C@H](C)[C@@H]1NC(=O)[C@H](CO)NC(=O)[C@H](CCCNC(=N)N)NC(=O)[C@H]([C@@H](C)O)NC(=O)[C@@H]2CSSC[C@H](NC(=O)[C@H](Cc3c[nH]cn3)NC(=O)[C@@H]3CCCN3C(=O)[C@@H]3CCCN3C1=O)C(=O)N[C@@H](Cc1ccccc1)C(=O)N1CCC[C@H]1C(=O)N[C@@H](CC(=O)O)C(=O)NCC(=O)N[C@@H](CCCNC(=N)N)C(=O)N2 [Analogue 1] (cyclo(CFPDGRCTRSIPPH); disulfide 1-7),IC50,KLK5 [1],65 ± 10 nM
same,Ki,KLK5 [1],60 nM
same,IC50,KLK7,2290 ± 68 nM
same,Kd,KLK5 [2],115 nM
same,Stoichiometry (N),"KLK5 [2]; ITC, 1xPBS pH 8.0, 25°C",1.03±0.01
same,ΔH,"KLK5 [2]; ITC, 1xPBS pH 8.0, 25°C",1.216 ± 0.021 kcal/mol
same,ΔS,"KLK5 [2]; ITC, 1xPBS pH 8.0, 25°C",35.8 cal mol^-1 kelvin^-1
same,ΔG,"KLK5 [2]; ITC, 25°C",-9.457 kcal/mol
same,Ka,"KLK5 [2]; ITC, 25°C (Table S2, unit not given)",8.7E6±2.7E6
O=S(=O)([O-])[O-].[Zn+2] [Zinc Sulfate],IC50,KLK5 [3],2940 nM
N=C(N)c1ccc(N)cc1 [p-Aminobenzamidine],IC50,KLK5 [3],60400 nM
GRCTKSIPPHCFPD,"ring closure, yield after HPLC",[4]; 0.6 mM,19%
GRCTKSIPPHCWPD,"ring closure, yield after HPLC",[4]; 0.59 mM,25%
GRCTKSIPPHCYPD,"ring closure, yield after HPLC",[4]; 0.6 mM,19%
GRCTKSKPPHCFPD,"ring closure, yield after HPLC",[4]; 0.6 mM,16%
GRCTRSIPPHCFPD,"ring closure, yield after HPLC",[4]; 0.59 mM,24%
GRCTRSIPPHCWPD,"ring closure, yield after HPLC",[4]; 0.58 mM,24%
NRCTKSIPPHCFPD,"ring closure, yield after HPLC",[4]; 0.58 mM,25%
